Laboratory results: ChEMBL document CHEMBL4265876, “Natural Products with Heteroatom-Rich Ring Systems” (J Nat Prod, 2017)
Converted amounts (≈) assume the structure as drawn.

Legend:
[1] = test system: MDA-MB-231; experiment: Cytotoxicity against human MDA-MB-231 cells; type: functional, cell-based
[2] = test system: NCI-H460; experiment: Cytotoxicity against human NCI-H460 cells; type: functional, cell-based
[3] = test system: ACHN; experiment: Cytotoxicity against human ACHN cells; type: functional, cell-based
[4] = test system: HL-60; experiment: Cytotoxicity against human HL60 cells; type: functional, cell-based
[5] = test system: V79; experiment: Cytotoxicity against chinese hamster V79 cells; type: cell-based; conditions: Cricetulus griseus
[6] = test system: Ruegeria atlantica; experiment: […] activity against Ruegeria atlantica assessed as inhibition zone at 50 ug/disk; type: functional; conditions: read-out: IZ
[7] = test system: DLD-1; experiment: Cytotoxicity against human DLD1 cells; type: functional, cell-based
[8] = test system: HCT-116; experiment: Cytotoxicity against human HCT116 cells; type: functional, cell-based
[9] = test system: Colletotrichum gloeosporioides; experiment: Antimicrobial activity against Glomerella cingulata; type: functional
[10] = test system: Trichophyton mentagrophytes; experiment: Antimicrobial activity against Trichophyton mentagrophytes; type: functional
[11] = test system: Cryptococcus neoformans; experiment: Antimicrobial activity against Cryptococcus neoformans; type: functional
[12] = test system: Bacillus subtilis; experiment: Antibacterial activity against Bacillus subtilis; type: functional
[13] = test system: Proteus vulgaris; experiment: Antibacterial activity against Proteus vulgaris; type: functional
[14] = test system: Candida albicans; experiment: Antifungal activity against Candida albicans; type: functional
[15] = test system: Saccharomyces cerevisiae; experiment: Antimicrobial activity against Saccharomyces cerevisiae; type: functional
[16] = test system: Pyricularia oryzae; experiment: Antimicrobial activity against Pyricularia orizae; type: functional
[17] = test system: Trichophyton rubrum; experiment: Antifungal activity against Trichophyton rubrum; type: functional
[18] = test system: SMMC-7721; experiment: Cytotoxicity against human SMMC7721 cells by MTT assay; type: functional, cell-based
[19] = test system: MCF7; experiment: Cytotoxicity against human MCF7 cells by MTT assay; type: functional, cell-based
[20] = test system: A549; experiment: Cytotoxicity against human A549 cells by MTT assay; type: functional, cell-based
[21] = test system: HL-60; experiment: Cytotoxicity against human HL60 cells by MTT assay; type: functional, cell-based
[22] = test system: SW480; experiment: Cytotoxicity against human SW480 cells by MTT assay; type: functional, cell-based
[23] = test system: Trypanosoma cruzi; experiment: Antitrypanosomal activity against Trypanosoma cruzi Y intracellular amastigotes; type: functional, organism-based
[24] = test system: Trypanosoma cruzi; experiment: Antitrypanosomal activity against Trypanosoma cruzi Y by MTT assay; type: functional, organism-based
[25] = test system: Ehrlich; experiment: Antitumor activity against mouse Ehrlich carcinoma cells xenografted in white mouse assessed as growth inhibition at 50 mg/kg, ip for 7 days; type: functional; conditions: 168 h, read-out: GI
[26] = test system: MIA PaCa-2; experiment: Cytotoxicity against human MIAPaCa2 cells; type: functional, cell-based
[27] = test system: PC-3; experiment: Cytotoxicity against human PC3 cells; type: functional, cell-based
[28] = test system: UMUC3; experiment: Cytotoxicity against human UM-UC-3 cells; type: functional, cell-based
[29] = test system: MDA-MB-231; experiment: Cytotoxicity against human MDA231 cells; type: functional, cell-based
[30] = test system: HT-29; experiment: Cytotoxicity against human HT-29 cells; type: functional, cell-based
[31] = test system: MDA-MB-468; experiment: Cytotoxicity against human MDA-MB-468 cells; type: functional, cell-based
[32] = test system: Cryptococcus neoformans; experiment: Antifungal activity against Cryptococcus neoformans; type: functional
[33] = test system: Candida albicans; experiment: Antifungal activity against Candida albicans SC5314; type: functional
[34] = test system: Candida albicans; experiment: Antifungal activity against Candida albicans YO109; type: functional

COc1c(SC)c(CCN(C)C)c2sc3c(OC)c(OC)c(SC)c(CCN(C)C)c3ssc2c1OC [LISSOCLIBADIN 2]
IC50 [1]: 0.2 µM | IC50 [2]: 0.27 µM | IC50 [3]: 0.24 µM | IC50 [4]: 0.08 µM | IC50 [5]: 0.21 µM | zone of inhibition at 50 µg/disc [6]: 28.2 mm | IC50 [7]: 0.1 µM | IC50 [8]: 0.14 µM

C1SSCSSS1
MIC [9]: 12.5 mg/L (≈ 66.4 µM) | MIC [10]: 3.12 mg/L (≈ 16.6 µM) | MIC [11]: 6.25 mg/L (≈ 33.2 µM) | MIC [12]: 50 mg/L (≈ 265 µM) | MIC [13]: 50 mg/L (≈ 265 µM) | MIC [14]: 6.25 mg/L (≈ 33.2 µM) | MIC [15]: 6.25 mg/L (≈ 33.2 µM) | MIC [16]: 12.5 mg/L (≈ 66.4 µM) | MIC [17]: 3.12 mg/L (≈ 16.6 µM)

CN1CC[C@]23c4ccccc4N[C@H]1[C@@]21CCN2CN4c5ccccc5[C@@]56CCN(C)[C@@]45N(c4c6cccc41)[C@@H]23
IC50 [18]: > 40 µM | IC50 [19]: > 40 µM | IC50 [20]: > 40 µM | IC50 [21]: > 40 µM | IC50 [22]: > 40 µM

C=C(C)C1CNC(NCC=C(C)C)=NO1 (configuration not stated)
IC50 [23]: 27 mg/L (≈ 129 µM) | IC50 [24]: 93 mg/L (≈ 444 µM)

COc1[nH]nc2nncnc12
inhibition in vivo at 50 mg/kg [25]: 83%

COc1cc(CCN)c2c(c1OC)SS[S+]2[O-] (configuration not stated)
IC50 [26]: 0.0024 to 0.0119 µM | IC50 [27]: 0.0024 to 0.0119 µM | IC50 [28]: 0.0024 to 0.0119 µM | IC50 [29]: 0.0024 to 0.0119 µM | IC50 [30]: 0.0024 to 0.0119 µM

COc1c(SC)c(CCN(C)C)c2sc3c(CCN(C)C)c(SC)c(OC)c(OC)c3ssc2c1OC [LISSOCLINOTOXIN F]
IC50 [4]: 0.23 µM | IC50 [5]: 0.28 µM | IC50 [31]: 4.2 mg/L (≈ 6.97 µM)

CC[C@H]1CC/C(=C2\C(=O)O[C@H](C)C2=O)O1
MIC80 [32]: 16 mg/L (≈ 76.1 µM) | MIC80 [33]: 32 mg/L (≈ 152 µM) | MIC80 [34]: 8 mg/L (≈ 38.1 µM) | MIC80 [17]: 64 mg/L (≈ 304 µM)
